What was measured:
Experiment in all cases: KINOMEscan
Type in all cases: binding
ACVR2B = biological target: T1, ACVR2B (Homo sapiens, UniProt Q13705)
T1 construct: purchased KINOMEscan (Ambit)
From the text: (§1) The activity of the compounds was confirmed using Compound S-(I-1) in the KINOMEscan screening platform.

ARK5 = biological target: T2, ARK5 (Homo sapiens, UniProt O60285)
T2 construct: purchased KINOMEscan (Ambit)
From the text: as §1

BMPR2 = biological target: T3, BMPR2 (Homo sapiens, UniProt Q13873)
T3 construct: purchased KINOMEscan (Ambit)
From the text: as §1

BTK = biological target: T4, BTK (Homo sapiens, UniProt Q06187)
T4 construct: purchased KINOMEscan (Ambit)
From the text: as §1

CDC2L5 = biological target: T5, CDC2L5 (Homo sapiens, UniProt Q14004)
T5 construct: purchased KINOMEscan (Ambit)
From the text: as §1

CDK11 = biological target: T6, CDK11 (Homo sapiens, UniProt Q9BWU1)
T6 construct: purchased KINOMEscan (Ambit)
T6 sequence (Q9BWU1 whole entry): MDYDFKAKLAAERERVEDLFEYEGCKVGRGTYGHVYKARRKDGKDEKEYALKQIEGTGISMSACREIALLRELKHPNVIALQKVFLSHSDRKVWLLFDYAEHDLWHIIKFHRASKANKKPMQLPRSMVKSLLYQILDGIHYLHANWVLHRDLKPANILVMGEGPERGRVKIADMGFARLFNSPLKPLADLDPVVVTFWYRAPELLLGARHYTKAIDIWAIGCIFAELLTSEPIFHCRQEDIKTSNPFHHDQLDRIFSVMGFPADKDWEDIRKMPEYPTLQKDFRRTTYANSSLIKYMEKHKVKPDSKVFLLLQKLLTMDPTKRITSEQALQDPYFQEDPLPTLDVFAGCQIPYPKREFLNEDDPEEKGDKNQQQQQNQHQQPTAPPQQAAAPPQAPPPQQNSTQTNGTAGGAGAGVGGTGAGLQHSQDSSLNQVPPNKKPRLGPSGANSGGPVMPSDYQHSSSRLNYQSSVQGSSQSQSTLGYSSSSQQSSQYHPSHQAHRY
From the text: as §1

CDK2 = biological target: T7, CDK2 (Homo sapiens, UniProt P24941)
T7 construct: purchased KINOMEscan (Ambit)
From the text: as §1

CDK3 = biological target: T8, CDK3 (Homo sapiens, UniProt Q00526)
T8 construct: purchased KINOMEscan (Ambit)
From the text: as §1

CDK8 = biological target: T9, CDK8 (Homo sapiens, UniProt P49336)
T9 construct: purchased KINOMEscan (Ambit)
From the text: as §1

CHEK1 = biological target: T10, CHEK1 (Homo sapiens, UniProt O14757)
T10 construct: purchased KINOMEscan (Ambit) screening platform
T10 sequence (O14757 whole entry): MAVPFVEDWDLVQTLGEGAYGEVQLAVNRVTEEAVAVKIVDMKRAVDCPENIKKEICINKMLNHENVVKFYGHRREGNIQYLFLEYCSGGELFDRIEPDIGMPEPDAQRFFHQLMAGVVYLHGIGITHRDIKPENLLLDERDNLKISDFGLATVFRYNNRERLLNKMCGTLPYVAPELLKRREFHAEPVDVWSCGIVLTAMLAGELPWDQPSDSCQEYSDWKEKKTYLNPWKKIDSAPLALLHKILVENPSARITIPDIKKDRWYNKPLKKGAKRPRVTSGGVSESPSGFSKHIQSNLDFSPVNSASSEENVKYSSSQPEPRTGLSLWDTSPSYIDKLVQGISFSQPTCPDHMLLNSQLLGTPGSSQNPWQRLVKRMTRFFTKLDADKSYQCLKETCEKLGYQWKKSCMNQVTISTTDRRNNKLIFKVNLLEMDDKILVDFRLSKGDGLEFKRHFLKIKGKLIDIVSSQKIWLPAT
From the text: as §1

CIT = biological target: T11, CIT (Homo sapiens, UniProt O14578)
T11 construct: purchased KINOMEscan (Ambit) screening platform
From the text: as §1

CSK = biological target: T12, CSK (Homo sapiens, UniProt P41240)
T12 construct: purchased KINOMEscan (Ambit) screening platform
T12 sequence (P41240 whole entry): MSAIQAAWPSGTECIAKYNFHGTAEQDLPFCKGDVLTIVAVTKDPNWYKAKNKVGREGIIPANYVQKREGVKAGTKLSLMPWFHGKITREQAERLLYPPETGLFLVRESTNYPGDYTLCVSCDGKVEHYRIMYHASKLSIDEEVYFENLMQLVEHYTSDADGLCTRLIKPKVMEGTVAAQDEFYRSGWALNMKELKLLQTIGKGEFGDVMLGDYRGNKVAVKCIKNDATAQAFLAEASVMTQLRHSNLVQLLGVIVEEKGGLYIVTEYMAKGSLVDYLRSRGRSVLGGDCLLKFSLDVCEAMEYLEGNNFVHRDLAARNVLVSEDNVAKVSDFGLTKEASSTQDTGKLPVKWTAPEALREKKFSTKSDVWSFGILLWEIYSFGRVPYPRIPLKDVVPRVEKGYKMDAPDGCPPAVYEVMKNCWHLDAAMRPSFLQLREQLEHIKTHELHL
From the text: as §1

CSNK1G1 = biological target: T13, CSNK1G1 (Homo sapiens, UniProt Q9HCP0)
T13 construct: purchased KINOMEscan (Ambit) screening platform
From the text: as §1

CSNK1G2 = biological target: T14, CSNK1G2 (Homo sapiens, UniProt P78368)
T14 construct: purchased KINOMEscan (Ambit) screening platform
From the text: as §1

CSNK1G3 = biological target: T15, CSNK1G3 (Homo sapiens, UniProt Q9Y6M4)
T15 construct: purchased KINOMEscan (Ambit) screening platform
T15 sequence (Q9Y6M4 whole entry): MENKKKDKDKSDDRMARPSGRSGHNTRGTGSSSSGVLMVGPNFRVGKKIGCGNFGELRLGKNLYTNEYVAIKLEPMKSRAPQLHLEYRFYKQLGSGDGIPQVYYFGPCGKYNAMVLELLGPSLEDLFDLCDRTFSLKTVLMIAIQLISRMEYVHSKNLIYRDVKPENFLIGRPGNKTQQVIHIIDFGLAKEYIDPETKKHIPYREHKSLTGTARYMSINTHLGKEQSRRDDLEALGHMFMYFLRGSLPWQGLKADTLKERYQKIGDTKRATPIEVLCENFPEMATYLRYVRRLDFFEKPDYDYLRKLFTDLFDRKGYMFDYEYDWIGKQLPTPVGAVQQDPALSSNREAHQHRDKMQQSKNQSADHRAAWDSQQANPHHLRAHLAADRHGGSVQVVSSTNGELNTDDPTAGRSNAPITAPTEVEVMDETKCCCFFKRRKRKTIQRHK
From the text: as §1

DCAMKL1 = biological target: T16, DCAMKL1 (Homo sapiens, UniProt O15075)
T16 construct: purchased KINOMEscan (Ambit)
From the text: as §1

DLK = biological target: T17, DLK (Homo sapiens, UniProt Q12852)
T17 construct: purchased KINOMEscan (Ambit)
From the text: as §1

EGFR = biological target: T18, EGFR (Homo sapiens, UniProt P00533)
T18 construct: purchased KINOMEscan (Ambit)
From the text: as §1

EGFR(E746-A750del) = biological target: T19, EGFR(E746-A750del) (Homo sapiens, UniProt P00533, DEL746-750)
T19 construct: purchased KINOMEscan (Ambit)
From the text: as §1

EGFR(G719C) = biological target: T20, EGFR(G719C) (Homo sapiens, UniProt P00533, G719C)
T20 construct: purchased KINOMEscan (Ambit)
From the text: as §1

EGFR(G719S) = biological target: T21, EGFR(G719S) (Homo sapiens, UniProt P00533, G719S)
T21 construct: purchased KINOMEscan (Ambit)
From the text: as §1

[1] = biological target: T22, EGFR(L747-E749del, A750P) (Homo sapiens, UniProt P00533, A750P/DEL747-749)
T22 construct: purchased KINOMEscan (Ambit)
T22 sequence (P00533 with tags, fused parts or gaps DEL747-749/A750P limits assumed): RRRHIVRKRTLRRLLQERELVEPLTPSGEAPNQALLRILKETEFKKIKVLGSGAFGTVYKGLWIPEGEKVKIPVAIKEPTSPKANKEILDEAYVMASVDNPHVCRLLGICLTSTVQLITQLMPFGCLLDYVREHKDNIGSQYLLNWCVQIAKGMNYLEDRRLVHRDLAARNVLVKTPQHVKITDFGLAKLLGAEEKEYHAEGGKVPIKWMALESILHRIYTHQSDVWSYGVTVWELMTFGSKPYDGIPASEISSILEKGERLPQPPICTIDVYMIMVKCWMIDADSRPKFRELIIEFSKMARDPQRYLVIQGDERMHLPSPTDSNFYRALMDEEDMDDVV
From the text: as §1

[2] = biological target: T23, EGFR(L747-S752del, P753S) (Homo sapiens, UniProt P00533, DEL747-752/P753S)
T23 construct: purchased KINOMEscan (Ambit)
From the text: as §1

EGFR(L747-T751del, Sins) = system: EGFR(L747-T751del, Sins)
From the text: as §1

EGFR(L858R) = biological target: T24, EGFR(L858R) (Homo sapiens, UniProt P00533, L858R)
T24 construct: purchased KINOMEscan (Ambit)
T24 sequence (P00533 25-1210 L858R): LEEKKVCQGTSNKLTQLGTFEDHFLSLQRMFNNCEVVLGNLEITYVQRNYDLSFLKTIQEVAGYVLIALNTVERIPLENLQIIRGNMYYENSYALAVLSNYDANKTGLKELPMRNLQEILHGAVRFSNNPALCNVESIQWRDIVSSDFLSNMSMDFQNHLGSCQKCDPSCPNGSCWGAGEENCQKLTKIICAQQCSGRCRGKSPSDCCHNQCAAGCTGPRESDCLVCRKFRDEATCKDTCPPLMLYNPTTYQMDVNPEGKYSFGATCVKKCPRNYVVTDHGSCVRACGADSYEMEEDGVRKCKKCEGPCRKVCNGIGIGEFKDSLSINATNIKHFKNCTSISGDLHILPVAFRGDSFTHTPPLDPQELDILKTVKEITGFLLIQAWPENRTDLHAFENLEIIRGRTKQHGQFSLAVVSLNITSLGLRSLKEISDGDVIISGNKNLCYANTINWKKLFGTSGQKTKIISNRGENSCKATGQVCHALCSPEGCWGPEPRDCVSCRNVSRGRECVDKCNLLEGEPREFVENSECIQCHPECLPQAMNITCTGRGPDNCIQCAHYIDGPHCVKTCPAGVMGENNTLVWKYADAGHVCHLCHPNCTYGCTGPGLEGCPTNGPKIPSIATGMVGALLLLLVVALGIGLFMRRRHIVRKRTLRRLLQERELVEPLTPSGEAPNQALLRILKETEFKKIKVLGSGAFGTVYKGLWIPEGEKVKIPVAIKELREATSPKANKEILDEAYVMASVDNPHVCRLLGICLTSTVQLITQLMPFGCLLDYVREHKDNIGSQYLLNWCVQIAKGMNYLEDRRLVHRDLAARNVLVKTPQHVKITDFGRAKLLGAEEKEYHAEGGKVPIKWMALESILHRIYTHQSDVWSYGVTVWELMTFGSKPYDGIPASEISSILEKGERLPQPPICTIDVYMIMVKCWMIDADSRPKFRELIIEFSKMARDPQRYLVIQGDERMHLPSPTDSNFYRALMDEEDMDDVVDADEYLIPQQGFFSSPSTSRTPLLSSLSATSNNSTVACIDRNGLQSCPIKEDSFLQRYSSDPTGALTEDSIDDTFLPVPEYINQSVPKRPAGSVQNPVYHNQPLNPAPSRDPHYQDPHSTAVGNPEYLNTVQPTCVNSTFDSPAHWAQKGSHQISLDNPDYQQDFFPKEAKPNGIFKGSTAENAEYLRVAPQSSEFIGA
From the text: as §1

EGFR(L858R, T790M) = biological target: T25, EGFR(L858R, T790M) (Homo sapiens, UniProt P00533, L858R/T790M)
T25 construct: purchased KINOMEscan (Ambit)
From the text: as §1

EGFR(L861Q) = biological target: T26, EGFR(L861Q) (Homo sapiens, UniProt P00533, L861Q)
T26 construct: purchased KINOMEscan (Ambit)
From the text: as §1

EGFR(S752-I759del) = biological target: T27, EGFR(S752-I759del) (Homo sapiens, UniProt P00533, DEL752-759)
T27 construct: purchased KINOMEscan (Ambit)
T27 sequence (P00533 with tags, fused parts or gaps DEL752-759): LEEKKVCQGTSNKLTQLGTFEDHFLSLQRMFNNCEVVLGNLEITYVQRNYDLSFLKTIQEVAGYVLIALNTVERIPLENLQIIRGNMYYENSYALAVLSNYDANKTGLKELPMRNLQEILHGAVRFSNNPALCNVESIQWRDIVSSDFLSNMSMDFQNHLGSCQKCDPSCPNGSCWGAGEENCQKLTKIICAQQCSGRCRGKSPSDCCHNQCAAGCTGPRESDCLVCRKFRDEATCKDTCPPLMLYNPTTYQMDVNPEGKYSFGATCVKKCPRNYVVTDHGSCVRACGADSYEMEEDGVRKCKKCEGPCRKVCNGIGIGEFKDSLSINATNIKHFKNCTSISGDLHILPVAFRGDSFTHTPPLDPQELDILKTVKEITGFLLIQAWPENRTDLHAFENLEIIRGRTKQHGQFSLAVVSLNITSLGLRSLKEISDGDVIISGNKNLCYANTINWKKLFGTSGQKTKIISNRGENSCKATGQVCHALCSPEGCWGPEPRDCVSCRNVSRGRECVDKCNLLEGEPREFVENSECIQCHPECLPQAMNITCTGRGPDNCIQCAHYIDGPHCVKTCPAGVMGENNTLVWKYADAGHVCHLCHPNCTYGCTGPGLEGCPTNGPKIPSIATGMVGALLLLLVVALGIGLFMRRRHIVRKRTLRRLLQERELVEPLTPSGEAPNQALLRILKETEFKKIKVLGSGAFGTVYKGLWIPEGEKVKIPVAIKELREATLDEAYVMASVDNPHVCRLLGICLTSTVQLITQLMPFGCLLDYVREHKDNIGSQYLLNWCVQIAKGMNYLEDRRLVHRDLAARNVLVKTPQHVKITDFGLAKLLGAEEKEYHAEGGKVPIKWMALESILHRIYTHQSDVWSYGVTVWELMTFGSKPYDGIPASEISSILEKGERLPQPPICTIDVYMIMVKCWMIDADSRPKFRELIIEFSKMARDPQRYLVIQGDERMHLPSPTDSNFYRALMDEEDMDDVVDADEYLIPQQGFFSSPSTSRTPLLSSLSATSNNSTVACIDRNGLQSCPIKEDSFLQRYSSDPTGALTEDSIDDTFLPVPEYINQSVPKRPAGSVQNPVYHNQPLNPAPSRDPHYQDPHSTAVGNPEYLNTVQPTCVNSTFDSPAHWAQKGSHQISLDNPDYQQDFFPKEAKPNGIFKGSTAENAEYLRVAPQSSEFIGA
From the text: as §1

EGFR(T790M) = biological target: T28, EGFR(T790M) (Homo sapiens, UniProt P00533, T790M)
T28 construct: purchased KINOMEscan (Ambit)
From the text: as §1

EPHA5 = biological target: T29, EPHA5 (Homo sapiens, UniProt P54756)
T29 construct: purchased KINOMEscan (Ambit)
From the text: as §1

EPHB2 = biological target: T30, EPHB2 (Homo sapiens, UniProt P29323)
T30 construct: purchased KINOMEscan (Ambit)
From the text: as §1

FLT3(ITD) = system: FLT3(ITD)
From the text: as §1

IRAK4 = biological target: T31, IRAK4 (Homo sapiens, UniProt Q9NWZ3)
T31 construct: purchased KINOMEscan (Ambit) screening platform
T31 sequence (Q9NWZ3 whole entry): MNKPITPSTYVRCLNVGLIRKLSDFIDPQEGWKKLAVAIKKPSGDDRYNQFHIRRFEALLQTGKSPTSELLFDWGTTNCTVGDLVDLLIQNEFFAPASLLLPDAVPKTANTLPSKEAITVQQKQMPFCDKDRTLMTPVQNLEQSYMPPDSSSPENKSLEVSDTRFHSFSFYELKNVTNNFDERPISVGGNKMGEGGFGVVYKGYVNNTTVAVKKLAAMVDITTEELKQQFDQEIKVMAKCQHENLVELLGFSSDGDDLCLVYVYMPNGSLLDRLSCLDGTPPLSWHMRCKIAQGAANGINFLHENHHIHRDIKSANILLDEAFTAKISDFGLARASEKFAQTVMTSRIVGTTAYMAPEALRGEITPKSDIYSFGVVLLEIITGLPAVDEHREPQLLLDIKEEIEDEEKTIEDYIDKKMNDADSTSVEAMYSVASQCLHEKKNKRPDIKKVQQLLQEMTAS
From the text: as §1

ITK = biological target: T32, ITK (Homo sapiens, UniProt Q08881)
T32 construct: purchased KINOMEscan (Ambit) screening platform
From the text: as §1

C=CC(=O)N1CCC(Nc2nccc(Oc3cc(C(=O)Nc4ccc(CN5CCN(CC)CC5)c(C(F)(F)F)c4)ccc3C)n2)C1 (stereo not drawn) [S-(I-1)]
Score (ACVR2B): 93
Score (ARK5): 83
Score (BMPR2): 100
Score (BTK): 98
Score (CDC2L5): 65
Score (CDK11): 0
Score (CDK2): 77
Score (CDK3): 56
Score (CDK8): 2.8
Score (CHEK1): 100
Score (CIT): 61
Score (CSK): 58
Score (CSNK1G1): 91
Score (CSNK1G2): 97
Score (CSNK1G3): 92
Score (DCAMKL1): 99
Score (DLK): 90
Score (EGFR): 68
Score (EGFR(E746-A750del)): 66
Score (EGFR(G719C)): 59
Score (EGFR(G719S)): 81
Score [1]: 52
Score [2]: 38
Score (EGFR(L747-T751del, Sins)): 43
Score (EGFR(L858R)): 84
Score (EGFR(L858R, T790M)): 94
Score (EGFR(L861Q)): 66
Score (EGFR(S752-I759del)): 90
Score (EGFR(T790M)): 90
Score (EPHA5): 87
Score (EPHB2): 91
Score (FLT3(ITD)): 24
Score (IRAK4): 81
Score (ITK): 98

Source: patent US20240034726A9, “MAP KINASE KINASE (MKK7) INHIBITORS AND USES THEREOF” (Dana-Farber Cancer Institute, Inc., priority 2020, published 2024)
